This is an account of results in the Deep4Chem optical property database.

A short description of the series: solvent given as SMILES.

In the case of `O=C1c2ccccc2C(=O)N1c1ccc(Cn2cncn2)cc1`, the emission maximum is recorded as 361 nm (in C1CCOC1); 313 nm (in C1COCCO1); 471 nm (in CC#N); 407 nm (in CC(C)=O); 427 nm (in CC(C)O); 310 nm (in CCCCCC). For the same compound, the emission maximum is 402 nm (in CCCCO); 422 nm (in CCO); 355 nm (in CCOC(C)=O); 339 nm (in CCOCC); 503 nm (in CN(C)C=O); 440 nm (in CO). Besides, the emission maximum (in CS(C)=O) was found to be 563 nm, the emission maximum (in Cc1ccccc1) amounted to 323 nm and the emission maximum (in ClCCl) came out at 367 nm.

Take `COc1cc(-c2cnc(-c3cnc4ccccc4c3)o2)cc(OC)c1OC`: the emission maximum (in ClCCl) was 458 nm.

On to `CCC1=C(C)C2=Cc3c4ccccc4c4n3[B-](c3ccc5cc6ccccc6cc5c3)(Oc3ccccc3-4)[N+]2=C1C` (stereo not given), for which the emission maximum reads like this: (in CC#N) 635 nm; (in CCCCCC) 636 nm; (in Cc1ccccc1) 641 nm; (in ClCCl) 639 nm.

Take `c1ccc2c(c1)c1ccccc1n2-c1ccc2c(c1)c1ccccc1n2-c1cc2c3ccccc3n3c4ccccc4c(c1)c23`: the emission maximum reads like this: (in C1CCCCC1) 391.83 nm; (in C1CCOC1) 402.09 nm; (in Cc1ccccc1) 400 nm.

With `C(=N\c1ccc(-c2cn3nc(-c4cccs4)sc3n2)cc1)/c1ccc(N(c2ccccc2)c2ccccc2)cc1`, the emission maximum (in ClC(Cl)Cl) turned out to be 552 nm.

With `Clc1ccc(/C=C/c2ccc(-c3nc4c5cccnc5c5ncccc5c4[nH]3)cc2)cc1`, the emission maximum worked out at 463 nm (in C1CCOC1), 471 nm (in CC#N), 473 nm (in CO) and 467 nm (in ClCCl).

On to `c1ccc(-n2c3ccccc3c3cc(-c4cccc(-n5c6cccnc6c6c7sc8ccccc8c7ccc65)c4)ccc32)cc1`, for which, under “in ClCCl”, the emission maximum amounted to 384 nm.

`c1ccc2c(c1)Cc1ccccc1N2c1c2ccccc2c(N2c3ccccc3Cc3ccccc32)c2ccccc12` registered an emission maximum (in Cc1ccccc1) of 553 nm.

`CCCCCCOC(=O)/C=C/C1=CC2=C(c3c(C)cc(C)cc3C)c3cc(/C=C/C(=O)OCCCCCC)cn3[B-](F)(F)[N+]2=C1`: the emission maximum (in ClCCl) is given as 606 nm.

Compound `C(=C\c1cc[n+]2ccc(/C=C/c3cc[nH]c3)cc2c1)/c1cc[nH]c1` yielded an emission maximum (in CO) of 542 nm.

For `Cc1cc(C)c(B(c2c(C)cc(C)cc2C)N2c3ccccc3C(C)(C)c3ccccc32)c(C)c1`, the emission maximum is listed as 533 nm (in C1CCCCC1), 558 nm (in Cc1ccccc1) and 580 nm (in ClCCl).

`COc1ccc(-c2ccc(-c3ccc(C#N)s3)s2)cc1` displayed an emission maximum (in C1CCCCC1) of 445 nm; an emission maximum (in C1COCCO1) of 455 nm; an emission maximum (in CC#N) of 476 nm; an emission maximum (in CC(C)O) of 471 nm; an emission maximum (in CCCCO) of 471 nm; an emission maximum (in CCO) of 474 nm. Besides, the emission maximum runs as follows: (in CCOC(C)=O) 461 nm; (in CN(C)C=O) 479 nm; (in CO) 476 nm; (in CS(C)=O) 484 nm; (in Cc1ccccc1) 450 nm; (in ClC(Cl)Cl) 465 nm. Further, the emission maximum is listed as 468 nm (in ClCCl) and 529 nm (in O).

`CCN(CC)c1ccc2cc(-c3ccc(S(C)(=O)=O)cc3)oc(=O)c2c1` registered an emission maximum (in CC(C)=O) of 487 nm; an emission maximum (in CCCCCC) of 419 nm; an emission maximum (in CCCCO) of 476 nm; an emission maximum (in CCCO) of 480 nm; an emission maximum (in CCO) of 485 nm; an emission maximum (in CCOC(C)=O) of 465 nm. In addition, the emission maximum stood at 499 nm (in CN(C)C=O), 489 nm (in CO) and 456 nm (in ClC(Cl)Cl).

For `CCC1=C(C)C2=C(C)c3cc(I)cn3[B-](F)(F)[N+]2=C1C`, the emission maximum by setting is: (in C1CCCCC1) 532 nm; (in CC(C)=O) 532.5 nm; (in CCO) 534 nm; (in CCOC(C)=O) 531.5 nm; (in CO) 533.5 nm; (in OCC(F)(F)F) 530.5 nm.

As for `O=C1c2cc(-n3c4ccccc4c4ccccc43)c(-n3c4ccccc4c4ccccc43)cc2C(=O)N1c1ccccc1`, the emission maximum (in Cc1ccccc1) is recorded as 510 nm.

Take `Fc1ccc(-c2cccc3ncc(-c4ccccc4)n23)cc1`: where the note is “in ClCCl”, the emission maximum stood at 469 nm.

As for `C#Cc1ccc(-c2c3nc(c(-c4ccc(C#C)cc4)c4ccc([nH]4)c(-c4cc(C(C)(C)C)cc(C(C)(C)C)c4)c4cc(c(-c5cc(C(C)(C)C)cc(C(C)(C)C)c5)c5ccc2[nH]5)C=N4)C=C3)cc1`, under “in ClCCl”, the emission maximum came out at 744 nm.

With `CCC1=C(C)C2=Cc3c4ccccc4c4n3[B-](c3ccncc3)(Oc3ccccc3-4)[N+]2=C1C` (stereo not given), the emission maximum is recorded as 633 nm (in CC#N), 636 nm (in CCCCCC), 639 nm (in Cc1ccccc1) and 639 nm (in ClCCl).

For the setting “in CO”, `CN1C(=CC=Cc2nc3nc4ccccc4nc3s2)C(C)(C)c2ccccc21` had an emission maximum of 623 nm.

For `C[Si](C)(C)C#Cc1cc2ccc3cc(C#C[Si](C)(C)C)cc4ccc(c1)c2c34`, under “in Cc1ccccc1”, the emission maximum worked out at 407 nm.

`COc1cccc2cc(C#N)c(=N)oc12` displayed an emission maximum (in ClCCl) of 462 nm.

Compound `O=P1(c2ccccc2)C(c2ccc(C(F)(F)F)cc2)=Cc2cc3ccccc3cc21` (stereo not given) registered an emission maximum (in ClCCl) of 425 nm.

In the case of `COc1cc(OC)cc(C2=[O+][B-](F)(F)OC(c3ccc4cc(OC)ccc4c3)=C2)c1`, the emission maximum was found to be 550.5 nm (in CC#N); 533.32 nm (in CC(C)=O); 430.95 nm (in CCCCCC); 475.78 nm (in Cc1ccccc1); 520 nm (in ClCCl).

Compound `O=C([O-])c1ccc(C(=O)[O-])c2cc3ccccc3cc12` had an emission maximum (in CN(C)C=O) of 430 nm.

In turn, `CN(C)c1ccc(/C=C/C=C/C=C/c2ccc(B(O)O)cc2)cc1` yielded an emission maximum (in C1CCCCC1) of 470 nm.

On to `COc1ccc(NC(=O)C(C(=O)Nc2ccc(OC)cc2)C(c2ccccc2O)c2c(C)[nH]c3ccccc23)cc1` (stereo not given), for which the emission maximum reads like this: (in CO) 350 nm; (in CS(C)=O) 360 nm.

For the compound `CCCCn1c2ccc(-c3cccs3)cc2c2c1c1c3ccc(-c4cccs4)cc3n(CCCC)c1c1c3ccc(-c4cccs4)cc3n(CCCC)c21`, the emission maximum (in C1CCOC1) amounted to 424 nm.

For the compound `COc1ccc2c3c(cccc13)C(=O)c1ccccc1-2`, the emission maximum was 526.87 nm (in CC#N); 520.02 nm (in CC(C)=O); 541.13 nm (in CC(C)O); 487.09 nm (in CCCCOCCCC); 506.07 nm (in CCOC(C)=O); 498.01 nm (in CCOCC). The compound further showed an emission maximum (in CO) of 560.85 nm; an emission maximum (in Cc1ccccc1) of 500 nm; an emission maximum (in Clc1ccccc1) of 507.87 nm; an emission maximum (in N#Cc1ccccc1) of 520.02 nm; an emission maximum (in O=C1CCCCC1) of 520.02 nm.

With `CCC1=C(C)C(=O)n2c1cc1c(c(C)c(C(=O)OC)n1C)c2=O`, the emission maximum (in C1CCCCC1) is 435 nm; the emission maximum (in CO) was found to be 501 nm; the emission maximum (in CS(C)=O) worked out at 482 nm; the emission maximum (in ClC(Cl)Cl) is 455 nm; the emission maximum (in c1ccccc1) was 447 nm.

Take `C[N+]1=C(/C=C/C=C2/N(CCCc3ccccc3)c3ccccc3C2(C)C)C(C)(C)c2ccccc21`: the emission maximum (in CS(C)=O) was 567 nm.

Consider `Cc1nc2c(ccc3ccccc32)oc1=O`, for which the emission maximum (in c1ccccc1) is listed as 424 nm.

As for `N#Cc1c(-n2c3ccccc3c3ccccc32)c(C#N)c(-n2c3ccccc3c3ccccc32)c(-n2c3ccccc3c3ccccc32)c1-n1c2ccccc2c2ccccc21`, for the setting “in Cc1ccccc1”, the emission maximum came to 507 nm.

Under “in C1CCCCC1”, `CC(C)(C)c1ccc2c(c1)Cc1cc(C(C)(C)C)ccc1-2` came in with an emission maximum of 348 nm.

Regarding `Cc1cccc(C)c1-c1cc2c(C)c3c4ccc5nc6c(ccc7c8c(C)c9cc(-c%10c(C)cccc%10C)c(-c%10c(C)cccc%10C)cc9c(C)c8c76)nc5c4c3c(C)c2cc1-c1c(C)cccc1C`, the emission maximum (in ClC(Cl)Cl) is given as 670 nm.

In the case of `c1cc2ccc3[nH]c4ccc5cccc6c(c1)c2c3c4c56`, for the setting “in ClC(Cl)Cl”, the emission maximum stood at 436 nm.

In turn, `CCOC(=O)c1cc2ccc3ccccc3c2c(C#N)c1N` yielded an emission maximum (in Cc1ccccc1) of 461 nm.

For the setting “in ClC(Cl)Cl”, `CCCCCCCCCCCCOc1cc2c3cc(OCCCCCCCCCCCC)c(OCCCCCCCCCCCC)cc3c3c(cc(OCCCCCCCCCCCC)c4nc5cc(C#Cc6ccc(OCCCC)cc6)c(C#Cc6ccc(OCCCC)cc6)cc5nc43)c2cc1OCCCCCCCCCCCC` came in with an emission maximum of 661 nm.

Regarding `COc1cc2cc(/C=C/c3ccc(/C=C/c4ccc(/C=C(\C#N)C(=O)O)cc4)cc3)c(=O)oc2cc1OC`, the emission maximum (in CC#N) is given as 489 nm.

For the compound `Cc1ccc(-n2c(-c3cccc4cc[n-]c34)[nH+]c3c4ccccc4c4ccccc4c32)cc1`, the emission maximum (in Cc1ccccc1) was 566 nm.

For `COc1ccc(-c2cnc3cccc(-c4ccc(C(C)=O)cc4)n23)cc1`, the emission maximum (in ClCCl) is 537 nm.

Regarding `COc1cc2c(cc1-c1ccsc1)Cc1c3c(c4c(c1-2)-c1cc(OC)c(-c2ccsc2)cc1C4)C(=O)N(CCC(C)C)C3=O`, the emission maximum (in C1CCOC1) was determined as 487 nm.

In turn, `Cc1ccccc1-c1c2ccc(=[N+]3CCCC3)cc-2oc2cc(N3CCCC3)ccc12` gave an emission maximum (in CCO) of 576 nm and an emission maximum (in ClCCl) of 573 nm.

Compound `CC(=O)Nc1ccc2c3cccc4cccc(c5cccc1c52)c43` yielded an emission maximum (in C1COCCO1) of 471 nm, an emission maximum (in CC#N) of 471 nm, an emission maximum (in CCCCOCCCC) of 471 nm and an emission maximum (in CCOC(C)=O) of 471 nm.

For `F[B-]1(F)n2c(/C=C/c3ccc(C(=C(c4ccccc4)c4ccccc4)c4ccccc4)cc3)ccc2C(c2ccc(C(=C(c3ccccc3)c3ccccc3)c3ccccc3)cc2)=C2C=CC(/C=C/c3ccc(C(=C(c4ccccc4)c4ccccc4)c4ccccc4)cc3)=[N+]21`, the emission maximum (in C1CCOC1) is recorded as 685 nm.
